Test systems include HT-29; BT-549; T47D; DU-145; MOLT-4; UO-31; SF-268; A498; HCC 2998; RPMI-8226; NCI-H460; SF-539; EKVX; HOP-92; SNB-75; M14; NCI-H522; A549; UACC-62.
Holding throughout (experiment): DTP human tumour cell line panel, 48 h

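Dose response: 5 concentrations. Exposure: 48 h. Format: 96-well plates. Endpoint: linear interpolation; highest concentration if not reached. GI50 = concentration required for 50% inhibition of growth.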 Activity calls are given as the source filed them. Rule as the data show it: active = GI50 up to about 1.1 µM and inactive = higher.

On to `COC(=O)c1ccc(-n2c(C)nc(=O)c(-c3ccccc3)c2C)cc1`, for which the GI50 with HT-29, in the test on BT-549, in the test on T47D, with DU-145, in the test on MOLT-4 and in the test with UO-31 was > 100 µM (inactive) each time. For the same compound, the GI50 in the test with SF-268 was > 100 µM (inactive); in the test on A498, > 100 µM (inactive); with HCC 2998, > 100 µM (inactive); with RPMI-8226, > 100 µM (inactive); with NCI-H460, > 100 µM (inactive); in the test with SF-539 it was 74 µM (inactive). Further, the GI50 in the test on EKVX, in the test on HOP-92, in the test with SNB-75, with M14, with NCI-H522 and with A549 was > 100 µM (inactive) each time.

Regarding `N#Cc1c(-c2ccc(Cl)cc2)c2c([nH]c1=O)-c1cc([N+](=O)[O-])ccc1CCC2`, the GI50 in the test on HT-29 was 25.4 µM (inactive); in the test with BT-549 it was 15.2 µM (inactive); with T47D it was 30.9 µM (inactive); in the test on DU-145, 35.8 µM (inactive); in the test with MOLT-4, 38 µM (inactive); with UO-31, 16 µM (inactive). Further, the GI50 was 17.3 µM (inactive) in the test with SF-268; 16.1 µM (inactive) in the test on A498; 16.9 µM (inactive) in the test on HCC 2998; 86.7 µM (inactive) in the test on RPMI-8226; 14.1 µM (inactive) in the test with NCI-H460; 17.9 µM (inactive) with SF-539. Besides, the GI50 with EKVX was 17.1 µM (inactive); in the test on HOP-92, 14.4 µM (inactive); in the test on SNB-75 it was 23.3 µM (inactive); in the test with UACC-62 it was 13.5 µM (inactive); in the test with M14 it was 24.1 µM (inactive); with NCI-H522, 13.3 µM (inactive). Further, the GI50 with A549 was 18.8 µM (inactive).

As for `Cc1cccc(-c2cccc(COCc3cccc(-c4cccc(CO)n4)n3)n2)n1`, the GI50 is 40.8 µM (inactive) in the test on HT-29; 19.3 µM (inactive) with BT-549; 31.2 µM (inactive) with T47D; > 50 µM (inactive) in the test on DU-145; 4.41 µM (inactive) with MOLT-4; > 50 µM (inactive) in the test on UO-31. Besides, the GI50 in the test on SF-268 is > 50 µM (inactive); in the test with A498, > 50 µM (inactive); with HCC 2998, > 50 µM (inactive); in the test with RPMI-8226, 33.3 µM (inactive); in the test with NCI-H460, 43.8 µM (inactive); with SF-539, > 50 µM (inactive). For the same compound, the GI50 is 35.5 µM (inactive) in the test on EKVX; 47.2 µM (inactive) in the test on HOP-92; > 50 µM (inactive) in the test with SNB-75; > 50 µM (inactive) in the test on UACC-62; 34.4 µM (inactive) in the test with M14; > 50 µM (inactive) in the test with NCI-H522. Also, in the test on A549, the GI50 is > 50 µM (inactive).

Take `COc1ccc(COCC[C@H](C)OC2OC(CO[Si](C)(C)C(C)(C)C)C(O)C(O)C2O)cc1` (stereo partly drawn): the GI50 in the test on HT-29 is > 100 µM (inactive); in the test with BT-549, > 100 µM (inactive); in the test on T47D, > 100 µM (inactive); in the test on DU-145, > 100 µM (inactive); with MOLT-4 it was 56.9 µM (inactive); in the test on UO-31, 81.8 µM (inactive). The GI50 in the test on SF-268, in the test on A498, with HCC 2998, with RPMI-8226, in the test with NCI-H460 and in the test on SF-539 was > 100 µM (inactive) throughout. The GI50 with EKVX was > 100 µM (inactive); with HOP-92, > 100 µM (inactive); with SNB-75, 44.2 µM (inactive); in the test with UACC-62, > 100 µM (inactive); with M14, > 100 µM (inactive); in the test with NCI-H522, > 100 µM (inactive). Also, the GI50 in the test with A549 is > 100 µM (inactive).

Consider `COC(=O)c1sc2c(c1C(=O)OC)/C(=N/c1ccc(OC)cc1)S/C2=N\c1ccc(OC)cc1`, for which the GI50 was 0.522 µM (active) in the test on HT-29; 1.54 µM (inactive) with BT-549; 0.982 µM (active) in the test on T47D; 0.525 µM (active) in the test on DU-145; 0.248 µM (active) with MOLT-4; 0.865 µM (active) with UO-31. Moreover, the GI50 with SF-268 is 1.55 µM (inactive); in the test on A498, 1.65 µM (inactive); with HCC 2998 it was 1.69 µM (inactive); in the test with RPMI-8226, 0.275 µM (active); with NCI-H460, 1.33 µM (inactive); with SF-539, 0.274 µM (active). Moreover, the GI50 is 1.55 µM (inactive) in the test with EKVX; 1.51 µM (inactive) with HOP-92; 0.787 µM (active) with SNB-75; 1.45 µM (inactive) in the test with UACC-62; 1.45 µM (inactive) in the test on M14; 0.541 µM (active) in the test on NCI-H522. Also, in the test on A549, the GI50 was 1.31 µM (inactive).

Take `CC1=NN(c2nc(N)nc(/C(C#N)=C\c3cccc([N+](=O)[O-])c3)n2)C(C)(C)C1`: the GI50 in the test on HT-29 was 11.7 µM (inactive); in the test with BT-549 it was > 20.7 µM (inactive); in the test on T47D it was 11 µM (inactive); in the test on DU-145, 12.7 µM (inactive); in the test on MOLT-4 it was 34.6 µM (inactive); in the test on UO-31, 5.32 µM (inactive). For the same compound, the GI50 in the test on SF-268 was 10.7 µM (inactive); in the test on A498, > 23 µM (inactive); with HCC 2998, 12.2 µM (inactive); in the test on RPMI-8226, 5.65 µM (inactive); with NCI-H460, 4.31 µM (inactive); with SF-539, 8.2 µM (inactive). Besides, the GI50 in the test with EKVX was 29.9 µM (inactive); in the test with HOP-92, > 24.4 µM (inactive); with SNB-75 it was 6.68 µM (inactive); in the test with UACC-62, 19.6 µM (inactive); in the test on M14 it was 20 µM (inactive); with NCI-H522, 2.92 µM (inactive). In addition, in the test with A549, the GI50 is 12.3 µM (inactive).

As for `Cc1ccc2c(n1)C(=O)c1ccccc1C2=O`, the GI50 is 23.5 µM (inactive) in the test with HT-29; 32.4 µM (inactive) in the test on BT-549; 30.3 µM (inactive) with T47D; 17.3 µM (inactive) in the test with DU-145; 33 µM (inactive) in the test with MOLT-4; 32.5 µM (inactive) with UO-31. The GI50 in the test on SF-268 was 31.3 µM (inactive); with A498, 31.6 µM (inactive); with HCC 2998, 28.8 µM (inactive); in the test with RPMI-8226, 32.6 µM (inactive); with NCI-H460 it was 15.8 µM (inactive); in the test with SF-539, > 56.5 µM (inactive). Further, the GI50 was 27.5 µM (inactive) in the test with EKVX; 51.6 µM (inactive) in the test with HOP-92; 29.8 µM (inactive) in the test with SNB-75; 20.5 µM (inactive) in the test with UACC-62; > 44.5 µM (inactive) in the test with M14; 21.7 µM (inactive) in the test with NCI-H522. Further, the GI50 in the test with A549 is 21.2 µM (inactive).

Regarding `CC1(C)OC2CN(C(=O)OCc3ccccc3)C(CO)C2O1` (stereo not drawn), the GI50 with HT-29, with BT-549, with T47D, in the test with DU-145, in the test on MOLT-4 and in the test with UO-31 was > 100 µM (inactive) in each case. Also, the GI50 in the test with SF-268, with A498, with HCC 2998, in the test with RPMI-8226, in the test with NCI-H460 and in the test with SF-539 was > 100 µM (inactive) each time. In addition, the GI50 with EKVX, with HOP-92, with SNB-75, with UACC-62, in the test with M14 and in the test with NCI-H522 was > 100 µM (inactive) throughout. In addition, the GI50 in the test with A549 was > 100 µM (inactive).

Turning to `CCOC(=O)c1c(N2CCOCC2)[nH]c(=O)c(C(c2ccc(OC)cc2)c2c(O)c(C(=O)OCC)c(N3CCOCC3)[nH]c2=O)c1O`, the GI50 in the test with HT-29, in the test with BT-549, with T47D, with DU-145, in the test on MOLT-4 and with UO-31 was > 100 µM (inactive) throughout. The GI50 in the test with SF-268, in the test on A498, with HCC 2998, in the test with RPMI-8226, in the test with NCI-H460 and in the test with SF-539 was > 100 µM (inactive) each time. The GI50 in the test on EKVX, in the test on HOP-92, with SNB-75, in the test with UACC-62, in the test with M14 and in the test with NCI-H522 was > 100 µM (inactive) each time. The GI50 in the test with A549 was > 100 µM (inactive).

`CNc1c2c(c3nc4ccccc4c4c3c1N=C4)NCCC2=O` [PLAKINIDINE A]: the GI50 was 2.23 µM (inactive) in the test on HT-29; 7.74 µM (inactive) in the test with BT-549; 3.78 µM (inactive) in the test with T47D; > 10 µM (inactive) with DU-145; 1.32 µM (inactive) with MOLT-4; 3.56 µM (inactive) with UO-31. Further, the GI50 with SF-268 is 3.33 µM (inactive); in the test on A498, 2.67 µM (inactive); in the test on HCC 2998, 5.08 µM (inactive); with RPMI-8226, 2.57 µM (inactive); with NCI-H460, 3.15 µM (inactive); in the test on SF-539, 3.9 µM (inactive). Also, the GI50 is > 10 µM (inactive) in the test with EKVX; 4.51 µM (inactive) with HOP-92; 2.87 µM (inactive) in the test on SNB-75; > 10 µM (inactive) in the test with M14; 3.27 µM (inactive) with NCI-H522; 3.52 µM (inactive) in the test on A549.

These data come from ChEMBL document CHEMBL1201862, “PubChem BioAssay data set” (2004).
